“Also recorded” adds a separate entry of the source.
How the values were obtained:
[1] = test system: MysD; assay: In vitro MysD reaction with amino acid substrates (LC-HRMS detection of MAA products); type: biochemical, Nostoc linckia NIES-25; conditions: 5 mM amino acid, 50 uM mycosporine-glycine, 5 mM ATP, 0.5 uM MysD, pH 8.0, room temperature, 4 hours
Protocol: The reaction solution contained 50 mM HEPES, pH 8.0, 10 mM MgCl2, 50 uM mycosporine-glycine (MG), 5 mM amino acid substrates, and 5 mM ATP. The reactions were initiated by adding 0.5 uM MysD and then carried out at room temperature for 4 hours. The reactions were then terminated and centrifuged.
In Vitro MysD Reactions. MG was purified from extracts of E. coli expressing MysAB2C by HPLC and used as the substrate for the MysD reactions. The quality of MG was calculated based on its extinction coefficient (28,100 M^−1cm^−1). The MysD reactions included MG (50 μM), Mg^2+ (10 mM), unnatural amino acid substrates (5 mM), and ATP (5 mM) in 50 mM HEPES, pH 8.0. The reactions were initiated by adding MysD (0.5 μM) and then incubated at room temperature for 4 hours. All reactions were quenched by heat inactivation at 95° C. for 10 min. After centrifugation at 20,000×g for 15 min, the clear supernatants were collected for LC-HRMS analysis.
The reactions were terminated and then analyzed in the HPLC and/or LC-MS analysis.
HPLC and LC-MS Analysis. Samples were analyzed on a Shimadzu Prominence UHPLC system (Kyoto, Japan) coupled with a PDA detector. Unless stated elsewhere, the following HPLC procedure was performed. The compounds were separated on a Phenomenex Luna C8 column (4.6×250 mm, 5 μm) using the following HPLC program: 2% B for 15 min, 2-90% B gradient in 2 min, 90% B in 2 min, 90-2% in 2 min, and re-equilibration in 2% B for 6 min. The A phase was water with 0.1% formic acid and the B phase was methanol. The flow rate was set at 0.5 mL/min. LC-HRMS and HRMS/MS experiments were conducted on a Thermo Scientific Q Exactive Focus mass spectrometer with a Dionex Ultimate RSLC 3000 uHPLC system, equipped with the H-ESI II probe on an Ion Max API Source. Methanol (B)/water (A) containing 0.1% formic acid were used as mobile phases. The eluents from the first 3 min were diverted to waste by a diverting valve. MS1 signals were acquired under the Full MS positive ion mode, covering a mass range of m/z 150-2000, with resolution at 35 000 and AGC target at 1×10^6.

[2] = cited from earlier work

Compound	use as amino acid substrate by MysD to produce MAA products [1]	also measured
NC[C@H](N)C(=O)O [(S)-2,3-diaminopropionic acid]	could be used by MysD	–
NC[C@@H](N)C(=O)O [(R)-2,3-diaminopropionic acid]	not able to take	–
C[C@@H](O)[C@H](N)C(=O)O [L-threonine]	could be used by MysD; also recorded: best substrate	–
C=C[C@H](N)C(=O)O [(S)-2-aminobut-3-enoic acid]	could be used by MysD	–
COC1=C(NCC(=O)O)C[C@@](O)(CO)CC1=N[C@H](C(=O)O)[C@@H](C)O [porphyra-334]	–	maximal absorption wavelength ([2]; natural MAA given as comparison value): 334 nm
COC1=C(NCC(=O)O)C[C@@](O)(CO)CC1=O [MG, mycosporine-glycine]	–	extinction coefficient ([2]; used to calculate the quantity of MG): 28,100 M^−1cm^−1

Reference: US20260272801A1, “BIOCATALYTIC SYNTHESIS OF UNNATURAL MYCOSPORINE-LIKE AMINO ACIDS” (University of Florida Research Foundation, Incorporated, priority 2022, published 2026)
